pEC50: −log10 of the molar value.
Each compound was assayed against T1, human F508del CFTR (Homo sapiens, UniProt P13569, DEL508-508) (assay: CFTR-YFP High Throughput Assay). Conditions: EMax normalized to the positive control; FRT cells expressing human F508del CFTR and YFP; read-out: % Efficacy.
T1 construct: expressed in transfected cells; host or cells: Fisher Rat Thyroid (FRT) cells
T1 sequence (P13569 with tags, fused parts or gaps DEL508-508): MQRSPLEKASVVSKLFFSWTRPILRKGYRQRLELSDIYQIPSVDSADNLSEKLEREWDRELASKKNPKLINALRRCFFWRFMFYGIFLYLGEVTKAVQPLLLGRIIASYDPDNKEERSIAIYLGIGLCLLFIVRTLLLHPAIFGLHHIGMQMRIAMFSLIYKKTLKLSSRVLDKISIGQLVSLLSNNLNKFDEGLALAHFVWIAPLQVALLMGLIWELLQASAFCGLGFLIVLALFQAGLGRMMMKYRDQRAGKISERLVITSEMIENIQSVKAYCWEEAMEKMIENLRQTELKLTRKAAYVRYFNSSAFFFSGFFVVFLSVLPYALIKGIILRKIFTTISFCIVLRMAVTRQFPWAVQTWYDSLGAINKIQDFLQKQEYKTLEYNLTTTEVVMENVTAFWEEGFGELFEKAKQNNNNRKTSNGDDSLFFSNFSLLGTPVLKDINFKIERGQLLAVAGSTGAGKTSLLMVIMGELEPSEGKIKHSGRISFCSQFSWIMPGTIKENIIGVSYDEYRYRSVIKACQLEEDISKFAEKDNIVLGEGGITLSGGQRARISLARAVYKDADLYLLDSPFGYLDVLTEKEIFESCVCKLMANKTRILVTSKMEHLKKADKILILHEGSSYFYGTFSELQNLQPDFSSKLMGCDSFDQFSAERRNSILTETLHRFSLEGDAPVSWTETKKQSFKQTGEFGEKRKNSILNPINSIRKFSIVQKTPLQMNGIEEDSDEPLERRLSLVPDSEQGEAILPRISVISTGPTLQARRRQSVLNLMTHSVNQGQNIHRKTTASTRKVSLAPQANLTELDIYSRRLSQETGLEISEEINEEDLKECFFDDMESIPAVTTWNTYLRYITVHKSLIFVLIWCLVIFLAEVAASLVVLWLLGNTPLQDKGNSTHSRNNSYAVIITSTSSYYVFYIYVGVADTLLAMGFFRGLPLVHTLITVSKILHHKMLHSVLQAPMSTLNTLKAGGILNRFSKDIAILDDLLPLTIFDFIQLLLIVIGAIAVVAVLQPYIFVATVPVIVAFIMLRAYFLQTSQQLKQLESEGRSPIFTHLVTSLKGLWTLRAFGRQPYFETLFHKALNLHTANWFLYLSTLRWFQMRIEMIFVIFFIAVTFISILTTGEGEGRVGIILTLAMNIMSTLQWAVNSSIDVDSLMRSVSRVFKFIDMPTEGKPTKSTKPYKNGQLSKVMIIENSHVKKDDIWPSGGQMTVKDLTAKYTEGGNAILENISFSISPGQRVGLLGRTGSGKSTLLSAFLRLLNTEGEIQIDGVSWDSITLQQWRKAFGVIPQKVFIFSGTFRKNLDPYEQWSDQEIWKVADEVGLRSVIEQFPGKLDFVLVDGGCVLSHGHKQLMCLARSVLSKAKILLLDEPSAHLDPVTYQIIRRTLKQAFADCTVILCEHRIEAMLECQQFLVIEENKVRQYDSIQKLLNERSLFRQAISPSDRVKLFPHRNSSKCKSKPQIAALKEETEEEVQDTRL
Format: cell-based
Protocol: Assays for Detecting and Measuring the Effect of Compounds on F508del-CFTR Channels CFTR-YFP High Throughput Assay-CFTR Corrector Protocol:
This protocol is designed to selectively screen small molecule compounds for F508del CFTR corrector activities in the HTS YFP (yellow fluorescent protein) flux assay. In this protocol, the cells are incubated with testing compounds for 24 hours, washed with PBS, stimulated with forskolin and a standard potentiator, and fluorescence in each plate well is measured kinetically read on a 384-well HTS plate reader, such as the Hamamatsu FDSS-6000.
YFP fluorescence intensity values are acquired at high speed before and after iodide buffer is injected to the assay cells. Iodide enters the cells via active CFTR channels in the plasma membrane, and quenches the YFP fluorescence. The rate of fluorescence quenching is proportionate to the total CFTR activity in the cell membrane. F508del CFTR correctors increase the number of CFTR molecules in the testing cell plasma membrane, and thereby accelerate YFP quenching.
This method was initially developed for bench top plate readers (Galietta et al., 2001), and was adapted to the HTS format (Sui et al. Assay Drug Dev. Technol. 2010).
Fisher Rat Thyroid (FRT) cells stably expressing both human F508del CFTR and a halide-sensitive yellow fluorescent protein (YFP-H148Q/I152L 25,22) (Galietta et al. Am. J. Physiol Cell Physiol 281(5), C1734, 2001) were cultured on plastic surface in Coon's modified Ham's F12 medium supplemented with FBS 10%, L-glutamine 2 mM, penicillin 100 U/ml, and streptomycin 100 µg/ml. G418 (0.75-1.0 mg/ml) and zeocin (3.2 ug/ml) were used for selection of FRT cells expressing F508del CFTR and YFP. For primary screening, FRT cells were plated into 384-well black wall, transparent bottom microtiter plates (Costar; Corning Inc.) at a cell density of 20,000-40,000 per well. Test compound was applied to the cells at varying concentrations ranging from 2 nM-40 μM in either a 2-fold or 3-fold dilution series. Cells were incubated in a cell culture incubator at 37° C. with 5% CO2 for 24-26 h. Assay plates were washed with DPBS media (Thermo, cat# SH30028.02) to remove unbound cells and compound. Stimulation media (25 μL) containing 20 μM Forskolin & 30 μM P3 [6-(Ethyl-phenyl-sulfonyl)-4-oxo-1,4-dihydro-quinoline-3-carboxylic acid 2-methoxy-benzylamide] in Hams F-12 coon's modified media was added to the plate wells and incubated at room temperature for 60-120 min. […] (10 mM HEPES, 1 mM MgCl2, 3 mM KCl, 1 mM CaCl2, 150 mM NaI) was then added and fluorescence quench curves (Excitation 500 nm/Emission 540 nm; exposure 136 ms) were immediately recorded on an FDSS-6000 plate reader (Hamamatsu). Quench rates were derived from least squares fitting of the data as described by Sui et al (2010).
CFTR-YFP High Throughput Assay-CFTR Potentiator Protocol:
This protocol is designed to selectively screen small molecule compounds for F508del CFTR potentiator activities in the HTS YFP flux assay. Such compounds act acutely to stimulate CFTR already expressed on the membrane surface. In this protocol, the cells are incubated at 27° C. for 24 hours to homogeneously boost F508del CFTR expression in the cell membrane (low temperature correction), washed with PBS, treated with test compound, and CFTR activity is stimulated with forskolin for 1-2 hr. Measurement of ion flux is initiated by addition of iodide-containing buffer, and YFP quenching is kinetically recorded using a 384-well HTS plate reader, such as the Hamamatsu FDSS-6000.
YFP fluorescence intensity values are acquired at high speed over a 1 min time course before and after iodide buffer is injected to the assay cells. Iodide enters the cells via active CFTR channels in the plasma membrane, and quenches the YFP fluorescence. The rate of fluorescence quenching is proportionate to total CFTR activity in the cell membrane. […]
In the case of CCc1ccc(N(CC)C(=O)Cn2nc(Cc3cccnc3)c3ccc(C)cc3c2=O)cc1 [Example 28, N-ethyl-N-(4-ethylphenyl)-2-(7-methyl-1-oxo-4-(pyridin-3-ylmethyl)phthalazin-2(1H)-yl)acetamide], the Emax was 30 to 80%. In the case of CCc1ccc(N(CC)C(=O)Cn2nc(Cc3cccnc3)c3cc(C)ccc3c2=O)cc1 [Example 29, N-ethyl-N-(4-ethylphenyl)-2-(6-methyl-1-oxo-4-(pyridin-3-ylmethyl)phthalazin-2(1H)-yl)acetamide], the Emax was 30 to 80%. Compound CCc1ccc(N(CC)C(=O)Cn2nc(Cc3cccnc3)c3cccc(C)c3c2=O)cc1 [Example 30, N-ethyl-N-(4-ethylphenyl)-2-(8-methyl-1-oxo-4-(pyridin-3-ylmethyl)phthalazin-2(1H)-yl)acetamide] has an Emax of 30 to 80%. With CCc1ccc(N(CC)C(=O)Cn2nc(Cc3cccnc3)c3c(C)cccc3c2=O)cc1 [Example 31, N-ethyl-N-(4-ethylphenyl)-2-(5-methyl-1-oxo-4-(pyridin-3-ylmethyl)phthalazin-2(1H)-yl)acetamide] the Emax was 30 to 80%. With CCc1ccc(N(CC)C(=O)Cn2nc(Cc3cccnc3)c3cc(OC)c(OC)cc3c2=O)cc1 [Example 32, 2-(6,7-dimethoxy-1-oxo-4-(pyridin-3-ylmethyl)phthalazin-2(1H)-yl)-N-ethyl-N-(4-ethylphenyl)acetamide] the Emax was 10 to 30%. In the case of CCc1ccc(N(CC)C(=O)Cn2nc(Cc3cccnc3)c3ccc(C(C)(C)C)cc3c2=O)cc1 [Example 33, 2-(7-(tert-butyl)-1-oxo-4-(pyridin-3-ylmethyl)phthalazin-2(1H)-yl)-N-ethyl-N-(4-ethylphenyl)acetamide], the Emax was 30 to 80%. CCc1ccc(N(CC)C(=O)Cn2nc(Cc3cccnc3)c3cc(C(C)(C)C)ccc3c2=O)cc1 [Example 34, 2-(6-(tert-butyl)-1-oxo-4-(pyridin-3-ylmethyl)phthalazin-2(1H)-yl)-N-ethyl-N-(4-ethylphenyl)acetamide] gave an Emax of 30 to 80%. With CCc1ccc(N(CC)C(=O)Cn2nc(Cc3cccnc3)c3ccc(OC)cc3c2=O)cc1 [Example 35, N-ethyl-N-(4-ethylphenyl)-2-(7-methoxy-1-oxo-4-(pyridin-3-ylmethyl)phthalazin-2(1H)-yl)acetamide] the Emax was 30 to 80%. For CCc1ccc(N(CC)C(=O)Cn2nc(Cc3cccnc3)c3cc(OC)ccc3c2=O)cc1 [Example 36, N-ethyl-N-(4-ethylphenyl)-2-(6-methoxy-1-oxo-4-(pyridin-3-ylmethyl)phthalazin-2(1H)-yl)acetamide], the Emax was 30 to 80%. CCc1ccc(N(CC)C(=O)Cn2nc(Cc3cccnc3)c3cccc(F)c3c2=O)cc1 [Example 37, N-ethyl-N-(4-ethylphenyl)-2-(8-fluoro-1-oxo-4-(pyridin-3-ylmethyl)phthalazin-2(1H)-yl)acetamide] was tested, and the Emax was 30 to 80%. Work on CCc1ccc(N(CC)C(=O)Cn2nc(Cc3cccnc3)c3cc(Cl)c(Cl)cc3c2=O)cc1 [Example 38, 2-(6,7-dichloro-1-oxo-4-(pyridin-3-ylmethyl)phthalazin-2(1H)-yl)-N-ethyl-N-(4-ethylphenyl)acetamide] yielded an Emax of 30 to 80%. CCc1ccc(N(CC)C(=O)Cn2nc(Cc3cccnc3)c3ccc(Cl)cc3c2=O)cc1 [Example 39, 2-(7-chloro-1-oxo-4-(pyridin-3-ylmethyl)phthalazin-2(1H)-yl)-N-ethyl-N-(4-ethylphenyl)acetamide] gave an Emax of 30 to 80%. With CCc1ccc(N(CC)C(=O)Cn2nc(Cc3cccnc3)c3cc(Cl)ccc3c2=O)cc1 [Example 40, 2-(6-chloro-1-oxo-4-(pyridin-3-ylmethyl)phthalazin-2(1H)-yl)-N-ethyl-N-(4-ethylphenyl)acetamide] the Emax was 30 to 80%. In the case of CCc1ccc(N(CC)C(=O)Cn2nc(Cc3cccnc3)c3ccncc3c2=O)cc1 [Example 41, N-ethyl-N-(4-ethylphenyl)-2-(4-oxo-1-(pyridin-3-ylmethyl)pyrido[3,4-d]pyridazin-3(4H)-yl)acetamide], the Emax was 30 to 80%. CCc1ccc(N(CC)C(=O)Cn2nc(Cc3cccnc3)c3cnccc3c2=O)cc1 [Example 42, N-ethyl-N-(4-ethylphenyl)-2-(1-oxo-4-(pyridin-3-ylmethyl)pyrido[3,4-d]pyridazin-2(1H)-yl)acetamide] was tested, and the Emax was 10 to 30%. Work on CCc1ccc(N(CC)C(=O)Cn2nc(Cc3cccnc3)c3ncccc3c2=O)cc1 [Example 43, N-ethyl-N-(4-ethylphenyl)-2-(5-oxo-8-(pyridin-3-ylmethyl)pyrido[2,3-d]pyridazin-6(5H)-yl)acetamide] yielded an Emax of 10 to 30%. CCN(C(=O)Cn1nc(Cc2cccnc2)c2cc(OC)c(OC)cc2c1=O)c1ccc2c(c1)OC(F)(F)O2 [Example 44, N-(2,2-difluorobenzo[d][1,3]dioxol-5-yl)-2-(6,7-dimethoxy-1-oxo-4-(pyridin-3-ylmethyl)phthalazin-2(1H)-yl)-N-ethylacetamide] was tested, and the Emax was 30 to 80%. Work on CCN(C(=O)Cn1nc(Cc2cccnc2)c2ccc(C)cc2c1=O)c1ccc2c(c1)OC(F)(F)O2 [Example 45, N-(2,2-difluorobenzo[d][1,3]dioxol-5-yl)-N-ethyl-2-(7-methyl-1-oxo-4-(pyridin-3-ylmethyl)phthalazin-2(1H)-yl)acetamide] yielded an Emax greater than 80%. In the case of CCN(C(=O)Cn1nc(Cc2cccnc2)c2cc(C)ccc2c1=O)c1ccc2c(c1)OC(F)(F)O2 [Example 46, N-(2,2-difluorobenzo[d][1,3]dioxol-5-yl)-N-ethyl-2-(6-methyl-1-oxo-4-(pyridin-3-ylmethyl)phthalazin-2(1H)-yl)acetamide], the Emax was 30 to 80%. Compound CCN(C(=O)Cn1nc(Cc2cccnc2)c2cccc(C)c2c1=O)c1ccc2c(c1)OC(F)(F)O2 [Example 47, N-(2,2-difluorobenzo[d][1,3]dioxol-5-yl)-N-ethyl-2-(8-methyl-1-oxo-4-(pyridin-3-ylmethyl)phthalazin-2(1H)-yl)acetamide] has an Emax of 30 to 80%. With CCN(C(=O)Cn1nc(Cc2cccnc2)c2c(C)cccc2c1=O)c1ccc2c(c1)OC(F)(F)O2 [Example 48, N-(2,2-difluorobenzo[d][1,3]dioxol-5-yl)-N-ethyl-2-(5-methyl-1-oxo-4-(pyridin-3-ylmethyl)phthalazin-2(1H)-yl)acetamide] the Emax was 30 to 80%. CCN(C(=O)Cn1nc(Cc2cccnc2)c2cc(C(C)(C)C)ccc2c1=O)c1ccc2c(c1)OC(F)(F)O2 [Example 49, 2-(6-(tert-butyl)-1-oxo-4-(pyridin-3-ylmethyl)phthalazin-2(1H)-yl)-N-(2,2-difluorobenzo[d][1,3]dioxol-5-yl)-N-ethylacetamide] was tested, and the Emax was greater than 80%. CCN(C(=O)Cn1nc(Cc2cccnc2)c2ccc(C(C)(C)C)cc2c1=O)c1ccc2c(c1)OC(F)(F)O2 [Example 50, 2-(7-(tert-butyl)-1-oxo-4-(pyridin-3-ylmethyl)phthalazin-2(1H)-yl)-N-(2,2-difluorobenzo[d][1,3]dioxol-5-yl)-N-ethylacetamide] showed an Emax greater than 80%. Compound CCN(C(=O)Cn1nc(Cc2cccnc2)c2cc(OC)ccc2c1=O)c1ccc2c(c1)OC(F)(F)O2 [Example 51, N-(2,2-difluorobenzo[d][1,3]dioxol-5-yl)-N-ethyl-2-(6-methoxy-1-oxo-4-(pyridin-3-ylmethyl)phthalazin-2(1H)-yl)acetamide] has an Emax of 30 to 80%. CCN(C(=O)Cn1nc(Cc2cccnc2)c2ccc(OC)cc2c1=O)c1ccc2c(c1)OC(F)(F)O2 [Example 52, N-(2,2-difluorobenzo[d][1,3]dioxol-5-yl)-N-ethyl-2-(7-methoxy-1-oxo-4-(pyridin-3-ylmethyl)phthalazin-2(1H)-yl)acetamide] showed an Emax of 30 to 80%.

Same assay, conditions: FRT cells expressing human F508del CFTR and YFP
CCc1ccc(N(CC)C(=O)Cn2nc(Cc3cccnc3)c3cc(Cl)c(Cl)cc3c2=O)cc1 [Example 38, 2-(6,7-dichloro-1-oxo-4-(pyridin-3-ylmethyl)phthalazin-2(1H)-yl)-N-ethyl-N-(4-ethylphenyl)acetamide] gave a pEC50 greater than 5.00. For CCc1ccc(N(CC)C(=O)Cn2nc(Cc3cccnc3)c3ccc(Cl)cc3c2=O)cc1 [Example 39, 2-(7-chloro-1-oxo-4-(pyridin-3-ylmethyl)phthalazin-2(1H)-yl)-N-ethyl-N-(4-ethylphenyl)acetamide], the pEC50 was less than 4.70. With CCc1ccc(N(CC)C(=O)Cn2nc(Cc3cccnc3)c3ccncc3c2=O)cc1 [Example 41, N-ethyl-N-(4-ethylphenyl)-2-(4-oxo-1-(pyridin-3-ylmethyl)pyrido[3,4-d]pyridazin-3(4H)-yl)acetamide] the pEC50 was greater than 5.00. With CCc1ccc(N(CC)C(=O)Cn2nc(Cc3cccnc3)c3ncccc3c2=O)cc1 [Example 43, N-ethyl-N-(4-ethylphenyl)-2-(5-oxo-8-(pyridin-3-ylmethyl)pyrido[2,3-d]pyridazin-6(5H)-yl)acetamide] the pEC50 was less than 4.70. In the case of CCN(C(=O)Cn1nc(Cc2cccnc2)c2cc(OC)c(OC)cc2c1=O)c1ccc2c(c1)OC(F)(F)O2 [Example 44, N-(2,2-difluorobenzo[d][1,3]dioxol-5-yl)-2-(6,7-dimethoxy-1-oxo-4-(pyridin-3-ylmethyl)phthalazin-2(1H)-yl)-N-ethylacetamide], the pEC50 was 4.70 to 5.00.

From US10370366B2 (Flatley Discovery Lab, LLC, priority 2013, dated 2019)
